Values of other authors as cited in paper PMC7485629 (Biochemistry, 2019).
Read-outs that look alike come from different tables or passages of the source.

Tested on: N-terminus of PD-L1
Details: crystal structure

SMILES	interaction with N-terminus of PD-L1 (ref [21])	interaction with N-terminus of PD-L1 (ref [66])
COc1nc(OCc2cccc(-c3ccccc3)c2C)ccc1CNCCNC(C)=O [BMS-202]	water-mediated interaction with the backbone carbonyl of Phe19	
Cc1c(COc2cc(F)c(CNC[C@@H](O)CC(=O)O)cc2F)cccc1-c1ccc2c(c1)OCCO2 [BMS-200]		hydrogen bond with Thr20
